How the values were obtained:
Format in all cases: in vivo
[1] = system: carrageenan-induced rat paw edema; assay: Carrageenan-induced rat paw edema method
[2] = system: cotton pellet induced granulation tissue formation; assay: Cotton pellet induced granulation tissue formation method; settings: dose 200 mg/Kg b.w. (5e, 5f: 150)
[3] = system: adrenal weight; assay: Adrenal weight change method; settings: suppression of adrenal weights; dose 200 mg/Kg b.w. (5e, 5f: 150)
[4] = system: ulcers; assay: Ulcerogenecity, arbitrary ulcer scoring system; settings: dose 200 mg/Kg b.w. (5e, 5f: 150); p in parentheses
[5] = system: radiant heat induced rat tail flick; assay: Radiant heat induced rat tail flick method; settings: dose 200 mg/Kg b.w. (5e, 5f: 150)
[6] = system: maximum electroshock seizure; assay: Maximum electroshock seizure; settings: dose 200 mg/Kg b.w. (5e, 5f: 150); Fischer's exact test

In the case of CC(=O)Oc1ccccc1C(=O)O [aspirin], the “Antiinflammatory activity Percentage Inhibition, Carrageenan method, 1 h” value ([1]; 1 h, dose 200 mg/Kg b.w. (5e, 5f: 150)) is reported as 54.84%, the “Antiinflammatory activity Percentage Inhibition, Carrageenan method, 3 h” value ([1]; 3 h, dose 200 mg/Kg b.w. (5e, 5f: 150)) is reported as 55.05% and the “Antiinflammatory activity, carrageenan-induced rat paw edema, after 6 h” value ([1]; 6 h as printed in the text) is reported as 73.81%. The “Antiinflammatory activity Percentage Inhibition, Cotton pellet method” value [2] was 41.88%, the “Antiinflammatory activity Percentage Inhibition, Adrenal weight method” value [3] was 50.13% and the Ulcer index [4] was 43.33. For the same compound, the “Analgesic activity percent protection, Rat tail flick method” value [5] was 49.39%.

O=C1NC(=O)C(c2ccccc2)(c2ccccc2)N1 [phenytoin sodium] was tested, and the “Anticonvulsant activity, MES protection” value [6] was 100%.

From PMC3224403 (Indian Journal of Pharmaceutical Sciences, 2011)
